In PubChem BioAssay (NCI):
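These data come from cells grown in 96-well plates and exposed to compound for 48 hours at five concentrations. TGI: concentration producing complete growth inhibition.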

Experiments:
Test in all cases: growth of human tumour cells (NCI), 48 h
UACC-257 melanoma = tested on: UACC-257 melanoma
KM12 colon = tested on: KM12 colon
SK-MEL-28 melanoma = tested on: SK-MEL-28 melanoma
MDA-N = tested on: MDA-N
MDA-MB-231 breast = tested on: MDA-MB-231 breast
HL-60(TB) leukemia = tested on: HL-60(TB) leukemia
SF-295 CNS = tested on: SF-295 CNS
SF-539 CNS = tested on: SF-539 CNS
NCI/ADR-RES ovarian = tested on: NCI/ADR-RES ovarian
K-562 leukemia = tested on: K-562 leukemia
OVCAR-3 ovarian = tested on: OVCAR-3 ovarian
EKVX NSCLC = tested on: EKVX NSCLC
DU-145 prostate = tested on: DU-145 prostate
SK-MEL-2 melanoma = tested on: SK-MEL-2 melanoma
MDA-MB-435 = tested on: MDA-MB-435
COLO 205 colon = tested on: COLO 205 colon
SN12C renal = tested on: SN12C renal
CAKI-1 renal = tested on: CAKI-1 renal
HCT-116 colon = tested on: HCT-116 colon
HCT-15 colon = tested on: HCT-15 colon
SK-OV-3 ovarian = tested on: SK-OV-3 ovarian
U251 CNS = tested on: U251 CNS
BT-549 breast = tested on: BT-549 breast
SNB-75 CNS = tested on: SNB-75 CNS
SNB-19 CNS = tested on: SNB-19 CNS
HS 578T breast = tested on: HS 578T breast
T-47D breast = tested on: T-47D breast
UACC-62 melanoma = tested on: UACC-62 melanoma
NCI-H226 lung = tested on: NCI-H226 lung
UO-31 renal = tested on: UO-31 renal
CCRF-CEM leukemia = tested on: CCRF-CEM leukemia
ACHN renal = tested on: ACHN renal
OVCAR-8 ovarian = tested on: OVCAR-8 ovarian
IGROV1 ovarian = tested on: IGROV1 ovarian
786-0 renal = tested on: 786-0 renal
MCF7 breast = tested on: MCF7 breast
LOX IMVI melanoma = tested on: LOX IMVI melanoma
PC-3 prostate = tested on: PC-3 prostate
TK-10 renal = tested on: TK-10 renal
HOP-92 NSCLC = tested on: HOP-92 NSCLC
SK-MEL-5 melanoma = tested on: SK-MEL-5 melanoma
NCI-H460 lung = tested on: NCI-H460 lung
HCC-2998 colon = tested on: HCC-2998 colon
HT29 colon = tested on: HT29 colon
SW-620 colon = tested on: SW-620 colon
RXF 393 renal = tested on: RXF 393 renal
M14 melanoma = tested on: M14 melanoma
NCI-H23 lung = tested on: NCI-H23 lung
RPMI-8226 leukemia = tested on: RPMI-8226 leukemia
OVCAR-5 ovarian = tested on: OVCAR-5 ovarian
OVCAR-4 ovarian = tested on: OVCAR-4 ovarian
SF-268 CNS = tested on: SF-268 CNS
NCI-H522 lung = tested on: NCI-H522 lung
A549 NSCLC = tested on: A549 NSCLC
SR leukemia = tested on: SR leukemia
HOP-62 NSCLC = tested on: HOP-62 NSCLC
MOLT-4 leukemia = tested on: MOLT-4 leukemia
A498 renal = tested on: A498 renal

## CCC/C=C/C=C/C1CC(O)C(O)C(=O)C1CO (centres undefined)
UACC-257 melanoma
  TGI: > 100 µM
KM12 colon
  TGI: > 100 µM
SK-MEL-28 melanoma
  TGI: > 100 µM
MDA-N
  TGI: > 100 µM
MDA-MB-231 breast
  TGI: > 100 µM
HL-60(TB) leukemia
  TGI: > 100 µM
SF-295 CNS
  TGI: > 100 µM
SF-539 CNS
  TGI: > 100 µM
NCI/ADR-RES ovarian
  TGI: > 100 µM
K-562 leukemia
  TGI: > 100 µM
OVCAR-3 ovarian
  TGI: > 100 µM
EKVX NSCLC
  TGI: > 100 µM
DU-145 prostate
  TGI: > 100 µM
SK-MEL-2 melanoma
  TGI: > 100 µM
MDA-MB-435
  TGI: > 100 µM
COLO 205 colon
  TGI: > 100 µM
SN12C renal
  TGI: > 100 µM
CAKI-1 renal
  TGI: > 100 µM
HCT-116 colon
  TGI: > 100 µM
HCT-15 colon
  TGI: > 100 µM
SK-OV-3 ovarian
  TGI: > 100 µM
U251 CNS
  TGI: > 100 µM
BT-549 breast
  TGI: > 100 µM
SNB-75 CNS
  TGI: > 100 µM
SNB-19 CNS
  TGI: > 100 µM
HS 578T breast
  TGI: > 100 µM
T-47D breast
  TGI: > 100 µM
UACC-62 melanoma
  TGI: > 100 µM
NCI-H226 lung
  TGI: > 100 µM
UO-31 renal
  TGI: > 100 µM
CCRF-CEM leukemia
  TGI: > 100 µM
ACHN renal
  TGI: > 100 µM
OVCAR-8 ovarian
  TGI: > 100 µM
IGROV1 ovarian
  TGI: > 100 µM
786-0 renal
  TGI: > 100 µM
MCF7 breast
  TGI: > 100 µM
LOX IMVI melanoma
  TGI: > 100 µM
PC-3 prostate
  TGI: > 100 µM
TK-10 renal
  TGI: > 100 µM
HOP-92 NSCLC
  TGI: > 100 µM
SK-MEL-5 melanoma
  TGI: > 100 µM
NCI-H460 lung
  TGI: > 100 µM
HCC-2998 colon
  TGI: > 100 µM
HT29 colon
  TGI: > 100 µM
SW-620 colon
  TGI: > 100 µM
RXF 393 renal
  TGI: > 100 µM
M14 melanoma
  TGI: > 100 µM
NCI-H23 lung
  TGI: > 100 µM
RPMI-8226 leukemia
  TGI: > 100 µM
OVCAR-5 ovarian
  TGI: > 100 µM
OVCAR-4 ovarian
  TGI: > 100 µM
SF-268 CNS
  TGI: > 100 µM
NCI-H522 lung
  TGI: > 100 µM
A549 NSCLC
  TGI: > 100 µM

## Cc1cc2c([N+](=O)[O-])cc3c(c2o1)C(=O)C=CC3=O
SR leukemia
  TGI: > 76.4 µM
UACC-257 melanoma
  TGI: 7.23 µM
KM12 colon
  TGI: 32.2 µM
HOP-62 NSCLC
  TGI: 34.1 µM
SK-MEL-28 melanoma
  TGI: > 20.8 µM
MDA-N
  TGI: 28 µM
MDA-MB-231 breast
  TGI: 40.2 µM
SF-295 CNS
  TGI: 23 µM
SF-539 CNS
  TGI: 31.3 µM
NCI/ADR-RES ovarian
  TGI: 65.1 µM
K-562 leukemia
  TGI: > 100 µM
OVCAR-3 ovarian
  TGI: 19 µM
EKVX NSCLC
  TGI: 11.5 µM
DU-145 prostate
  TGI: > 52.3 µM
SK-MEL-2 melanoma
  TGI: 35.3 µM
MDA-MB-435
  TGI: 7.81 µM
COLO 205 colon
  TGI: 4.88 µM
SN12C renal
  TGI: 12.2 µM
CAKI-1 renal
  TGI: 2.68 µM
HCT-116 colon
  TGI: 10.5 µM
HCT-15 colon
  TGI: 37.1 µM
SK-OV-3 ovarian
  TGI: > 80.1 µM
U251 CNS
  TGI: 33.1 µM
BT-549 breast
  TGI: 30.4 µM
SNB-75 CNS
  TGI: > 61.5 µM
SNB-19 CNS
  TGI: 30.9 µM
HS 578T breast
  TGI: 54.8 µM
T-47D breast
  TGI: > 22.1 µM
UACC-62 melanoma
  TGI: 28.9 µM
NCI-H226 lung
  TGI: > 75.1 µM
UO-31 renal
  TGI: 3.62 µM
ACHN renal
  TGI: 3.77 µM
OVCAR-8 ovarian
  TGI: > 55.7 µM
IGROV1 ovarian
  TGI: 26.6 µM
786-0 renal
  TGI: 3.59 µM
MCF7 breast
  TGI: 11.2 µM
MOLT-4 leukemia
  TGI: 2.94 µM
LOX IMVI melanoma
  TGI: > 36 µM
PC-3 prostate
  TGI: 30.7 µM
TK-10 renal
  TGI: 5.72 µM
HOP-92 NSCLC
  TGI: 3.22 µM
SK-MEL-5 melanoma
  TGI: 28.1 µM
NCI-H460 lung
  TGI: 36.7 µM
HCC-2998 colon
  TGI: > 57.8 µM
HT29 colon
  TGI: 4.67 µM
RXF 393 renal
  TGI: 3.54 µM
M14 melanoma
  TGI: 10.6 µM
NCI-H23 lung
  TGI: 34.9 µM
A498 renal
  TGI: 29.5 µM
RPMI-8226 leukemia
  TGI: > 100 µM
OVCAR-5 ovarian
  TGI: 35.1 µM
OVCAR-4 ovarian
  TGI: 30.2 µM
SF-268 CNS
  TGI: 32.1 µM
NCI-H522 lung
  TGI: 3.32 µM
A549 NSCLC
  TGI: 37.2 µM
